The values that follow come from US7432295B2, “Preparation of compounds useful for the detection of hypoxia” (The Trustees of The University of Pennsylvania, priority 1999, dated 2008).

SMILES strings stand for the structures. “And” between values parts separate entries of the source, which are not always exact repeats. Equal entries are not always repeated.

For data set [1] the following is noted: cited from earlier work.
The conditions of data set [2]: multiple radioactive products distinct from parent drug following renal clearance; cited from earlier work.
In data set [3] the test system is hypoxic tumors. Particulars: in vivo; cited from earlier work.
Data set [4] is described as follows: Distribution of radioactive drug in various organs and tissues of tumor-bearing rats (γ-counter). The class given is in vivo, male Buffalo rats. The conditions noted are these: I/V. How it is done:
To measure the distribution of radioactive drug in various organs and tissues, the solution of […] in saline buffer was injected I/V into 3 male Buffalo rats. […] The radioactivity of samples was measured by γ-counter and corrected for weight and the time of decay.
Results from 3 animals are shown.

Data set [5] relates to hypoxic Q7 tumor (Morris 7777 hepatoma). The data set can be described thus: PET analysis of a tumor-bearing rat treated with [18F]-EF5. The class given is in vivo, male Buffalo rats. Particulars: rat bearing Q7 tumor in the leg, 150 minutes post injection. How it is done: The dark spot on the right side of the image represents a tumor and the dark spot in the middle of the image represents a bladder.
FIG. 3 illustrates a PET image of a tumor-bearing rat treated with 18-F-labeled EF5, 150 minutes post injection. The dark spot in the right side of the image represents the tumor and the dark spot in the middle of the image represents the bladder.
Q7 cells were obtained from the American Type Culture Collection (ATCC). They were maintained in exponential growth by transfers at 3.5 day intervals with standard culture conditions. Growth medium was Eagle's NEM supplemented with 15% fetal calf serum and standard penicillin and streptomycin.
All animal studies conformed to the regulations of the University of Pennsylvania Institutional Animal Care and Use Committee. Male Buffalo rats (Harlan Sprague Dawley, Indianapolis, Ind., USA) were used for all studies. Donor tumors were created by injecting 1 million Q7 cells subcutaneously into the thigh region. The average growth time to achieve a 1 cm diameter tumor was 21 days. Tumors of less than 2 g were used in the experiments.

`O=C(Cn1ccnc1[N+](=O)[O-])NCC(F)(F)C(F)(F)F` [EF5, 2-(2-nitro-1H-imidazol-1-yl)-N-(2,2,3,3,3-pentafluoropropyl)acetamide]: the “Drug stability in vivo” value in data set [1] is “high drug stability in vivo”. Further, the Blood-brain barrier passage entry in data set [1] (in vivo) is reported as “ability to cross blood-brain barrier”.

As for `O=[N+]([O-])c1nccn1CC(O)C[18F]` (stereo not shown) [[^18F]-fluoromisonidazole], the Stability in vivo result in data set [2] is given as “not stable in vivo”.

`O=C(Cn1ccnc1[N+](=O)[O-])NCCCF` [[^18F]-EF1]: in data set [3], the Biodistribution entry is “relatively uniform biodistribution limited by slow equilibration with brain tissue” and the “Labeling of hypoxic tumors” value is given as “good potential for labeling of hypoxic tumors”.

For `O=C(Cn1ccnc1[N+](=O)[O-])NCC(F)(F)C(F)(F)F` [[^18F]-EF5, [^18F]-2-(2-Nitro-1H-imidazol-1-yl)-N-(2,2,3,3,3-pentafluoropropyl)-acetamide], the “Tissue distribution of [^18F]-EF5 in rats bearing tumors” value (shortened to “Tissue distribution of [^18F]-EF5”) in data set [4] (Blood, 3 hrs) is 0.260 % dose/gram and 0.279 % dose/gram; in data set [4] (Bone, 3 hrs) it was 0.040 % dose/gram and 0.079 % dose/gram; in data set [4] (Bone, 4 hrs) it was 0.071 % dose/gram; in data set [4] (Brain, 3 hrs), 0.116 % dose/gram and 0.176 % dose/gram; in data set [4] (Brain, 4 hrs), 0.150 % dose/gram; in data set [4] (Heart, 3 hrs) it was 0.209 % dose/gram and 0.318 % dose/gram. The “Tissue distribution of [^18F]-EF5” value in data set [4] (Heart) is 0.277 % dose/gram; in data set [4] (Intestine, 3 hrs), 0.410 % dose/gram and 0.477 % dose/gram; in data set [4] (Intestine, 4 hrs) it was 0.376 % dose/gram; in data set [4] (Kidney, 3 hrs) it was 0.510 % dose/gram and 0.650 % dose/gram; in data set [4] (Kidney, 4 hrs), 0.500 % dose/gram; in data set [4] (Liver, 3 hrs), 0.399 % dose/gram and 0.578 % dose/gram. Further, the “Tissue distribution of [^18F]-EF5” value in data set [4] (Liver, 4 hrs) is 0.489 % dose/gram; in data set [4] (Lung, 3 hrs) it was 0.217 % dose/gram and 0.357 % dose/gram; in data set [4] (Lung, 4 hrs), 0.326 % dose/gram; in data set [4] (Muscle, 3 hrs), 0.162 % dose/gram and 0.246 % dose/gram; in data set [4] (Muscle, 4 hrs) it was 0.187 % dose/gram; in data set [4] (Spleen, 3 hrs), 0.192 % dose/gram and 0.294 % dose/gram. Besides, the “Tissue distribution of [^18F]-EF5” value in data set [4] (Spleen, 4 hrs) stood at 0.242 % dose/gram. For the same compound, the “Visibility of the tumor in the PET image” value in data set [5] is “clearly visible”.
